Values belong to the compound of their own block, whether it stands above or below them.
Assays:
Format in all cases: cell-based
[1] = system: K-562 human leukemia cells; assay: MTS cell viability assay, K-562 human leukemia cells; conditions: K562, K-562, 4 h compound incubation, MTS, read-out: IC50 Values, Cancerous Cells, Leukemia K-562
[2] = system: DLD-1 human colon carcinoma cells; assay: MTS cell viability assay, DLD-1 human colon carcinoma cells; conditions: DLD-1, 4 h compound incubation, MTS, read-out: IC50 Values, Cancerous Cells, Colon DLD-1
[3] = system: DU-145 human prostate carcinoma cells; assay: MTS cell viability assay, DU-145 human prostate carcinoma cells; conditions: DU-145, 4 h compound incubation, MTS, read-out: IC50 Values, Cancerous Cells, Prostate DU-145
[4] = system: NCM-460 normal colon epithelial cells; assay: MTS cell viability assay, NCM-460 normal colon epithelial cells; conditions: for IC50: Homo sapiens, NCM460, NCM-460, 4 h compound incubation, MTS, read-out: IC50 Values, Normal Cells, Colon NCM-460; for Fold Selectivity (NCM-460/DLD1): ratio of IC50 NCM-460 / DLD1
[5] = system: PACA-2 human pancreatic carcinoma cells; assay: MTS cell viability assay, PACA-2 human pancreatic carcinoma cells; conditions: PACA-2, 4 h compound incubation, MTS, read-out: IC50 Values, Cancerous Cells, Pancreas PACA-2
[6] = system: A549 human lung carcinoma cells; assay: MTS cell viability assay, A549 human lung carcinoma cells; conditions: A549, 4 h compound incubation, MTS, read-out: IC50 Values, Cancerous Cells, Lung A549

Structure (SMILES): O=C1C(=O)c2ccccc2C2=C1SCC1(CCN(C(=O)c3cc4ccccc4s3)CC1)O2 [Compound 51, 1′-(1-benzothien-2-ylcarbonyl)spiro[naphtho[1,2-b][1,4]oxathiine-2,4′-piperidine]-5,6-dione]
- IC50 [1]: 10.3 µM
- IC50 [2]: 11.6 µM
- IC50 [3]: 5.52 µM
- IC50 [4]: 33 µM
- Fold Selectivity (NCM-460/DLD1) [4]: 2.8
- IC50 [5]: 4.28 µM
- IC50 [6]: > 100 µM

Structure (SMILES): O=C1C(=O)c2ccccc2C2=C1SCC1(CCN(C(=O)c3ccncc3)CC1)O2 [Compound 57, 1′-isonicotinoylspiro[naphtho[1,2-b][1,4]oxathiine-2,4′-piperidine]-5,6-dione]
- IC50 [1]: 4.37 µM
- IC50 [2]: 4.29 µM
- IC50 [3]: 12.2 µM
- IC50 [4]: 9.91 µM
- Fold Selectivity (NCM-460/DLD1) [4]: 2.3
- IC50 [5]: 5.36 µM
- IC50 [6]: 24.8 µM

Structure (SMILES): Cc1nn(-c2ccccc2)nc1C(=O)N1CCC2(CC1)CSC1=C(O2)c2ccccc2C(=O)C1=O [Compound 58, 1′-[(5-methyl-2-phenyl-2H-1,2,3-triazol-4-yl)carbonyl]spiro[naphtho[1,2-b][1,4]oxathiine-2,4′-piperidine]-5,6-dione]
- IC50 [1]: 14.2 µM
- IC50 [2]: 13.7 µM
- IC50 [3]: 12.2 µM
- IC50 [4]: 79.9 µM
- Fold Selectivity (NCM-460/DLD1) [4]: 5.8
- IC50 [5]: 11 µM
- IC50 [6]: 42.2 µM

Structure (SMILES): O=C1C(=O)c2ccccc2C2=C1SCC1(CCN(C(=O)c3cccnc3)CC1)O2 [Compound 59, 1′-(pyridin-3-ylcarbonyl)spiro[naphtho[1,2-b][1,4]oxathiine-2,4′-piperidine]-5,6-dione]
- IC50 [1]: 4.24 µM
- IC50 [2]: 4.1 µM
- IC50 [3]: 10.4 µM
- IC50 [4]: 10.7 µM
- Fold Selectivity (NCM-460/DLD1) [4]: 2.6
- IC50 [5]: 4.24 µM
- IC50 [6]: 16.8 µM

Structure (SMILES): O=C1C(=O)c2ccccc2C2=C1SCC1(CCN(S(=O)(=O)c3ccc(Cl)c(Cl)c3)CC1)O2 [Compound 76, 1′-[(3,4-dichlorophenyl)sulfonyl]spiro[naphtho[1,2-b][1,4]oxathiine-2,4′-piperidine]-5,6-dione]
- IC50 [1]: > 33.3 µM
- IC50 [2]: 27.1 µM
- IC50 [3]: 28 µM
- IC50 [4]: 100 µM
- Fold Selectivity (NCM-460/DLD1) [4]: 3.7
- IC50 [5]: 14.3 µM
- IC50 [6]: > 100 µM

Structure (SMILES): O=C1C(=O)c2ccccc2C2=C1SCC1(CCN(S(=O)(=O)c3c(Cl)nc4sccn34)CC1)O2 [Compound 77, 1′-[(6-chloroimidazo[2,1-b][1,3]thiazol-5-yl)sulfonyl]spiro[naphtho[1,2-b][1,4]oxathiine-2,4′-piperidine]-5,6-dione]
- IC50 [1]: 22.9 µM
- IC50 [2]: 20.6 µM
- IC50 [3]: 49.2 µM
- IC50 [4]: 76.4 µM
- Fold Selectivity (NCM-460/DLD1) [4]: 3.7
- IC50 [5]: 16.1 µM
- IC50 [6]: > 100 µM

Structure (SMILES): O=C1C(=O)c2ccccc2C2=C1SCC1(CCN(S(=O)(=O)c3cccs3)CC1)O2 [Compound 78, 1′-(2-thienylsulfonyl)spiro[naphtho[1,2-b][1,4]oxathiine-2,4′-piperidine]-5,6-dione]
- IC50 [1]: 14.7 µM
- IC50 [2]: 11.1 µM
- IC50 [3]: 12.7 µM
- IC50 [4]: 30 µM
- Fold Selectivity (NCM-460/DLD1) [4]: 2.7
- IC50 [5]: 11.1 µM
- IC50 [6]: 46.7 µM

Structure (SMILES): Cn1cnc(S(=O)(=O)N2CCC3(CC2)CSC2=C(O3)c3ccccc3C(=O)C2=O)c1 [Compound 79, 1′-[(1-methyl-1H-imidazol-4-yl)sulfonyl]spiro[naphtho[1,2-b][1,4]oxathiine-2,4′-piperidine]-5,6-dione]
- IC50 [1]: 5.92 µM
- IC50 [2]: 8.26 µM
- IC50 [3]: 11.9 µM
- IC50 [4]: 20.5 µM
- Fold Selectivity (NCM-460/DLD1) [4]: 2.5
- IC50 [5]: 7.26 µM
- IC50 [6]: 23.5 µM

Structure (SMILES): Cc1nn(C)c(Cl)c1S(=O)(=O)N1CCC2(CC1)CSC1=C(O2)c2ccccc2C(=O)C1=O [Compound 81, 1′-[(5-chloro-1,3-dimethyl-1H-pyrazol-4-yl)sulfonyl]spiro[naphtho[1,2-b][1,4]oxathiine-2,4′-piperidine]-5,6-dione]
- IC50 [1]: 12.3 µM
- IC50 [2]: 12.3 µM
- IC50 [3]: 13.7 µM
- IC50 [4]: 30.2 µM
- Fold Selectivity (NCM-460/DLD1) [4]: 2.5
- IC50 [5]: 12.1 µM
- IC50 [6]: > 100 µM

Structure (SMILES): O=C1C(=O)c2ccccc2C2=C1SCC1(CCN(S(=O)(=O)c3cccc(Cl)c3)CC1)O2 [Compound 82, 1′-[(3-chlorophenyl)sulfonyl]spiro[naphtho[1,2-b][1,4]oxathiine-2,4′-piperidine]-5,6-dione]
- IC50 [1]: 10 µM
- IC50 [2]: 8.88 µM
- IC50 [3]: 7.88 µM
- IC50 [4]: 21.1 µM
- Fold Selectivity (NCM-460/DLD1) [4]: 2.4
- IC50 [5]: 4.59 µM
- IC50 [6]: 15.3 µM

The next compounds have a lower IC50 [1] than those just listed; values first:

- IC50 [1]: 1.8 µM
- IC50 [2]: 2.87 µM
- IC50 [3]: 4.11 µM
- IC50 [5]: 2.39 µM
- IC50 [6]: 5.58 µM
Structure (SMILES): O=C1C(=O)c2ccccc2C2=C1SCC1(CCN(C(=O)c3ccccc3I)CC1)O2 [Compound 49, 1′-(2-iodobenzoyl)spiro[naphtho[1,2-b][1,4]oxathiine-2,4′-piperidine]-5,6-dione]
- IC50 [4]: 7.72 µM
- Fold Selectivity (NCM-460/DLD1) [4]: 2.7

- IC50 [1]: 1.44 µM
- IC50 [2]: 1.54 µM
- IC50 [3]: 3.55 µM
- IC50 [5]: 1.42 µM
- IC50 [6]: 5.41 µM
Structure (SMILES): O=C1C(=O)c2ccccc2C2=C1SCC1(CCN(C(=O)C(Cl)c3ccccc3)CC1)O2 (centres unmarked) [Compound 50, 1′-[chloro(phenyl)acetyl]spiro[naphtho[1,2-b][1,4]oxathiine-2,4′-piperidine]-5,6-dione]
- IC50 [4]: 7.14 µM
- Fold Selectivity (NCM-460/DLD1) [4]: 4.6

- IC50 [1]: 2.71 µM
- IC50 [2]: 4.15 µM
- IC50 [3]: 4.49 µM
- IC50 [5]: 3.92 µM
- IC50 [6]: 14.4 µM
Structure (SMILES): COC(=O)C(=O)N1CCC2(CC1)CSC1=C(O2)c2ccccc2C(=O)C1=O [Compound 52, methyl (5,6-dioxo-5,6-dihydro-1′H-spiro[naphtho[1,2-b][1,4]oxathiine-2,4′-piperidine]-1′-yl)(oxo)acetate]
- IC50 [4]: 10.1 µM
- Fold Selectivity (NCM-460/DLD1) [4]: 2.4

- IC50 [1]: 1.74 µM
- IC50 [2]: 1.49 µM
- IC50 [3]: 1.91 µM
- IC50 [5]: 1.33 µM
- IC50 [6]: 7.57 µM
Structure (SMILES): O=C1C(=O)c2ccccc2C2=C1SCC1(CCN(C(=O)c3cccc(C(F)(F)F)c3)CC1)O2 [Compound 54, 1′-[3-(trifluoromethyl)benzoyl]spiro[naphtho 1,2-b][1,4]oxathiine-2,4′-piperidine-5,6-dione]
- IC50 [4]: 11 µM
- Fold Selectivity (NCM-460/DLD1) [4]: 7.4

- IC50 [1]: 3.38 µM
- IC50 [2]: 2.21 µM
- IC50 [3]: 4.16 µM
- IC50 [5]: 2.39 µM
- IC50 [6]: 8.59 µM
Structure (SMILES): Cc1cccc(C(=O)N2CCC3(CC2)CSC2=C(O3)c3ccccc3C(=O)C2=O)c1 [Compound 60, 1′-(3-methylbenzoyl)spiro[naphtho[1,2-b][1,4]oxathiine-2,4′-piperidine]-5,6-dione]
- IC50 [4]: 10.5 µM
- Fold Selectivity (NCM-460/DLD1) [4]: 4.8

- IC50 [1]: 2.93 µM
- IC50 [2]: 4.45 µM
- IC50 [3]: 7.82 µM
- IC50 [5]: 4.02 µM
- IC50 [6]: 19.4 µM
Structure (SMILES): CS(=O)(=O)N1CCC2(CC1)CSC1=C(O2)c2ccccc2C(=O)C1=O [Compound 75, 1′-(methylsulfonyl)spiro[naphtho[1,2-b][1,4]oxathiine-2,4′-piperidine]-5,6-dione]
- IC50 [4]: 9.56 µM
- Fold Selectivity (NCM-460/DLD1) [4]: 2.1

- IC50 [1]: 3.81 µM
- IC50 [2]: 3.53 µM
- IC50 [3]: 4.25 µM
- IC50 [5]: 3.35 µM
- IC50 [6]: 18.3 µM
Structure (SMILES): Cc1nn(C)c(C)c1S(=O)(=O)N1CCC2(CC1)CSC1=C(O2)c2ccccc2C(=O)C1=O [Compound 80, 1′-[(1,3,5-trimethyl-1H-pyrazol-4-yl)sulfonyl]spiro[naphtho[1,2-b][1,4]oxathiine-2,4′-piperidine]-5,6-dione]
- IC50 [4]: 12.9 µM
- Fold Selectivity (NCM-460/DLD1) [4]: 3.7

Reference: patent publication US7902354B2, “Lapachone compounds and methods of use thereof” (ArQule, Inc., priority 2006, dated 2011)
